Reference: ChEMBL document CHEMBL4765314, “Rational design and biological evaluation of gemfibrozil modified Xenopus GLP-1 derivatives as long-acting hypoglycemic agents” (Eur J Med Chem, 2020)
Each block holds one compound with its values, some of them ahead of it. Activity calls are given as the source filed them. The calls are words filed in the database; no cut-off is given here. Starred links: 1 amine or outer side, 2 acyl side, 3 side chain; linkers in the order of their positions; H or OH if unused. Non-standard residues stand in square brackets, D forms with d. Residues, ends and D or L forms follow the SMILES beside them. Groups on a side chain read outwards from the residue. ξ: configuration not given here. *: point of attachment. X2 = Cc1ccc(C)c(OCCCC(C)(C)C(=O)OCC(=O)NCCCCC(NC(=O)COC(=O)C(C)(C)CCCOc2cc(C)ccc2C)C(=O)*)c1; Glycoloyl(O-gemfibrozoyl) = Cc1ccc(C)c(OCCCC(C)(C)C(=O)OCC(=O)*)c1; γGlu = O=C(O)[C@H](CCC(=O)[*:2])N[*:1]; Thr(3ξ) = CC(O)[C@H](N)C(=O)O; Aun = NCCCCCCCCCCC(=O)O; ξK = NCCCCC(N)C(=O)O

What was measured:
[1] = Stability in Sprague-Dawley rat plasma assessed as half life at 1000 ng/ml measured up to 48 hrs under shaking condition by LC-MS/MS analysis; type: ADME, cell-free
Mus musculus [2] = experiment: Hypoglycemic activity in non-fasted db/db […] mouse assessed as reduction in blood glucose level at 25 nmol/kg, ip dosed 30 mins before glucose challenge measured up to 120 mins by OGTT method; type: functional, organism-based
Mus musculus [3] = experiment: Hypoglycemic activity in 12 hrs fasted ICR mouse assessed as reduction in blood glucose level at 25 nmol/kg, ip dosed 30 mins before glucose challenge measured up to 120 mins by OGTT method; type: functional, organism-based; conditions: time 150.0 min
Albumin = Albumin (Homo sapiens, UniProt P02768); experiment: Binding affinity to human serum albumin assessed as retention factor by HPAC method; type: ADME
Chain of Albumin (P02768 whole entry): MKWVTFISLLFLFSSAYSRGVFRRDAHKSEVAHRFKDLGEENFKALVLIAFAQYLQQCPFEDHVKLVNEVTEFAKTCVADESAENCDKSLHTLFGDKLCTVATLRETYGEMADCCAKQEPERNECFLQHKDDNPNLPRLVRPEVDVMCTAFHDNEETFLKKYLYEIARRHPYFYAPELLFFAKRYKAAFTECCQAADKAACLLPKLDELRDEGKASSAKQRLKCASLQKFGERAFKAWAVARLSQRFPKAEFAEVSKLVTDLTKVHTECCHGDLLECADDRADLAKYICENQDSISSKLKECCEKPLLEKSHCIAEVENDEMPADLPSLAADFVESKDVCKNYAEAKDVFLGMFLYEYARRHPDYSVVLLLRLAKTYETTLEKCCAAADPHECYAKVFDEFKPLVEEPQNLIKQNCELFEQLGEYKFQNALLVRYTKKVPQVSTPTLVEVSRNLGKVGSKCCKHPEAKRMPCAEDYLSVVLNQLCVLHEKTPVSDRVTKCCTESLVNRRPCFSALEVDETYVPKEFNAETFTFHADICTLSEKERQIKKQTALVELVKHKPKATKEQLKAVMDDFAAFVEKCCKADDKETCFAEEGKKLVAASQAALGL

[4] = target: Glucagon-like peptide 1 receptor (Homo sapiens, UniProt P43220); experiment: Agonist activity at human GLP-1R expressed in HEK293 cells assessed as stimulation of cAMP accumulation incubated for 60 mins by HTRF assay; type: functional, cell-based
Chain of Glucagon-like peptide 1 receptor (P43220 whole entry): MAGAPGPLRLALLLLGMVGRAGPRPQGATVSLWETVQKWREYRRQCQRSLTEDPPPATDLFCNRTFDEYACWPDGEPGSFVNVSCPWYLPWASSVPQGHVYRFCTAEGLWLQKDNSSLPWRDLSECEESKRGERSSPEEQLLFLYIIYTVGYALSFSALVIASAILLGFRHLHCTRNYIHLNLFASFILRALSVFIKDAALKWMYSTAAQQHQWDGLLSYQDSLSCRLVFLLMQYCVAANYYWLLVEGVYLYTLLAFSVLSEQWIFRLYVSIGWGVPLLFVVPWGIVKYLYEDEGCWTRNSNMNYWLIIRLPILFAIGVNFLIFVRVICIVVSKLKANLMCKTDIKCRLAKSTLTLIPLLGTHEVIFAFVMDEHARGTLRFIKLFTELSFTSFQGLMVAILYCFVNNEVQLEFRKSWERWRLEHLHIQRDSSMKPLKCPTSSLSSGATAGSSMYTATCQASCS

[5] = Half life in Sprague-Dawley rat at 50 nmol/kg, sc measured up to 24 hrs by LC-MS/MS analysis; type: ADME, organism-based; conditions: in vivo
[6] = Tmax in Sprague-Dawley rat at 50 nmol/kg, sc measured up to 24 hrs by LC-MS/MS analysis; type: ADME, organism-based; conditions: in vivo
[7] = Renal toxicity in ICR mouse assessed as effect on blood urea nitrogen level at 100 nmol/kg, sc administered once daily for 2 weeks; type: organism-based; conditions: in vivo, 336 h
[8] = Hepatotoxicity in ICR mouse assessed as effect on aspartate aminotransferase level at 100 nmol/kg, sc administered once daily for 2 weeks; type: toxicity, organism-based; conditions: in vivo, 336 h
[9] = Hepatotoxicity in ICR mouse assessed as effect on alanine aminotransferase level at 100 nmol/kg, sc administered once daily for 2 weeks; type: toxicity, organism-based; conditions: in vivo, 336 h
[10] = Renal toxicity in ICR mouse assessed as effect on serum creatinine level at 100 nmol/kg, sc administered once daily for 2 weeks; type: organism-based; conditions: in vivo, 336 h
Mus musculus [11] = experiment: Improvement in glucose tolerance in standard chow diet fed C57BL/6 mouse at 25 nmol/kg, sc administered every 2 days for 21 days; type: functional, organism-based; conditions: time 21.0 day
Mus musculus [12] = experiment: Reduction in serum total cholesterol in C57BL/6 mouse model of high-fat diet induced obesity at 25 nmol/kg, sc administered every two days for 21 days; type: functional, organism-based; conditions: time 21.0 day
Mus musculus [13] = experiment: Reduction in body fat content in C57BL/6 mouse model of high-fat diet induced obesity at 25 nmol/kg, sc administered every two days for 21 days relative to control; type: functional, organism-based; set-up: scale not given: the % may be the effect or the level left; conditions: time 21.0 day
Mus musculus [14] = experiment: Improvement in glucose tolerance in db/db mouse at 25 nmol/kg, sc administered every 2 days for 42 days by OGTT; type: functional, organism-based; conditions: time 42.0 day
Mus musculus [15] = experiment: Improvement in glucose tolerance in db/db mouse assessed as time for superior hypoglycemic effect by measuring glucose AUC at 25 nmol/kg, sc administered twice daily for 42 days by OGTT; type: functional, organism-based; conditions: time 42.0 day
Mus musculus [16] = experiment: Inhibition of solid-phase gastric emptying in 12 hrs fasted ICR mouse assessed reduction in gastric emptying rate at 25 nmol/kg, ip allowed for food intake 1 hrs and measured after 4 hrs […]; type: functional; set-up: scale not given: the % may be the effect or the level left
Mus musculus [17] = experiment: Hypoglycemic activity in normal chow diet fed C57BL/6 mouse assessed as fasting blood glucose at 25 nmol/kg, sc administered every two for 21 days; type: functional, organism-based; conditions: time 21.0 day
Mus musculus [18] = experiment: Reduction in serum triglyceride in C57BL/6 mouse model of high-fat diet induced obesity at 25 nmol/kg, sc administered every two days for 21 days; type: functional, organism-based; conditions: time 21.0 day
Mus musculus [19] = experiment: Increase in serum HDL level in C57BL/6 mouse model of high-fat diet induced obesity at 25 nmol/kg, sc administered every two days for 21 days; type: functional, organism-based; conditions: time 21.0 day
Mus musculus [20] = experiment: Effect in normal chow diet fed C57BL/6 mouse assessed as reduction in body weight increase at 25 nmol/kg, sc administered every two days for 21 days (reference value: 10.8%); type: functional, organism-based; set-up: scale not given: the % may be the effect or the level left; conditions: time 21.0 day
Mus musculus [21] = experiment: Reduction in body weight in C57BL/6 mouse model of diet induced obesity at 25 nmol/kg, sc administered every two days for 21 days relative to control; type: functional, organism-based; set-up: scale not given: the % may be the effect or the level left; conditions: time 21.0 day
Mus musculus [22] = experiment: Reduction in serum LDL level in C57BL/6 mouse model of high-fat diet induced obesity at 25 nmol/kg, sc administered every two days for 21 days; type: functional, organism-based; conditions: time 21.0 day
Mus musculus [23] = experiment: Reduction in HbA1c level in db/db mouse at 25 nmol/kg, sc administered every two days for 42 days by OGTT; type: functional, organism-based; conditions: time 42.0 day
Mus musculus [24] = experiment: Inhibition of fat mass gain in normal chow diet fed C57BL/6 mouse at 25 nmol/kg, sc administered every two days for 21 days; type: functional, organism-based; conditions: time 21.0 day
Mus musculus [25] = experiment: Hypoglycemic activity in 16 hrs fasted db/db mouse assessed as reduction in blood glucose level at 25 nmol/kg, ip treated 30 mins before glucose challenge and measured at 0 to 24 hrs by multiple OGTT; type: functional, organism-based; conditions: time 1470.0 min
Mus musculus [26] = experiment: Anorectic effect in normal chow diet fed C57BL/6 mouse assessed as reduction in food intake at 25 nmol/kg, sc administered every two for 21 days; type: functional, organism-based; conditions: time 21.0 day

Compound: CC[C@H](C)[C@H](NC(=O)[C@H](CC(C)C)NC(=O)[C@H](Cc1c[nH]c2ccccc12)NC(=O)[C@H](CCC(=O)O)NC(=O)[C@@H](NC(=O)[C@H](Cc1ccccc1)NC(=O)[C@H](CCC(=O)O)NC(=O)C(CCCCNC(=O)CC[C@H](NC(=O)C(CCCCNC(=O)COC(=O)C(C)(C)CCCOc1cc(C)ccc1C)NC(=O)COC(=O)C(C)(C)CCCOc1cc(C)ccc1C)C(=O)O)NC(=O)[C@H](C)NC(=O)[C@H](C)NC(=O)[C@H](CCC(=O)O)NC(=O)[C@H](CCC(=O)O)NC(=O)[C@H](CCC(=O)O)NC(=O)[C@H](CC(C)C)NC(=O)[C@H](Cc1ccc(O)cc1)NC(=O)[C@H](CCC(=O)O)NC(=O)[C@@H](NC(=O)[C@@H](NC(=O)[C@H](CC(=O)O)NC(=O)[C@H](CC(N)=O)NC(=O)[C@@H](NC(=O)[C@H](Cc1ccc(O)cc1)NC(=O)[C@@H](NC(=O)CNC(=O)[C@H](CCC(=O)O)NC(=O)CNC(=O)[C@@H](N)Cc1cnc[nH]1)[C@@H](C)O)[C@@H](C)O)C(C)C)[C@@H](C)O)[C@@H](C)CC)C(=O)N[C@@H](CCCCN)C(=O)NCC(=O)N[C@@H](CCCCN)C(=O)N1CCC[C@H]1C(=O)N[C@@H](CO)C(=O)N[C@@H](CO)C(=O)NCC(=O)N[C@@H](C)C(=O)N1CCC[C@H]1C(=O)N1CCC[C@H]1C(=O)N1CCC[C@H]1C(=O)N[C@@H](C)C(=O)O (stereo partly specified) (H-HGEGTYTNDVTEYLEEEAA[ξK]([γGlu-X2])EFIEWLIKGKPSSGAPPPA-OH)
half-life at 1000 ng/ml [1]: 30.4 h
Activity (Mus musculus [2]): Active
Activity (Mus musculus [3]): Active
K (Albumin): 11.8
EC50 [4]: 110 pM

Compound: CC[C@H](C)[C@H](NC(=O)[C@H](CC(C)C)NC(=O)[C@H](Cc1c[nH]c2ccccc12)NC(=O)[C@H](CCC(=O)O)NC(=O)[C@@H](NC(=O)[C@H](Cc1ccccc1)NC(=O)[C@H](CCC(=O)O)NC(=O)[C@H](CCCCNC(=O)CC[C@H](NC(=O)CCCCCCCCCCNC(=O)COC(=O)C(C)(C)CCCOc1cc(C)ccc1C)C(=O)O)NC(=O)[C@H](C)NC(=O)[C@H](C)NC(=O)[C@H](CCC(=O)O)NC(=O)[C@H](CCC(=O)O)NC(=O)[C@H](CCC(=O)O)NC(=O)[C@H](CC(C)C)NC(=O)[C@H](Cc1ccc(O)cc1)NC(=O)[C@H](CCC(=O)O)NC(=O)[C@@H](NC(=O)[C@@H](NC(=O)[C@H](CC(=O)O)NC(=O)[C@H](CC(N)=O)NC(=O)[C@@H](NC(=O)[C@H](Cc1ccc(O)cc1)NC(=O)[C@@H](NC(=O)CNC(=O)[C@H](CCC(=O)O)NC(=O)CNC(=O)[C@@H](N)Cc1cnc[nH]1)C(C)O)C(C)O)C(C)C)[C@@H](C)O)[C@@H](C)CC)C(=O)N[C@@H](CCCCN)C(=O)NCC(=O)N[C@@H](CCCCN)C(=O)N1CCC[C@H]1C(=O)N[C@@H](CO)C(=O)N[C@@H](CO)C(=O)NCC(=O)N[C@@H](C)C(=O)N1CCC[C@H]1C(=O)N1CCC[C@H]1C(=O)N1CCC[C@H]1C(=O)N[C@@H](CO)C(=O)O (stereo partly drawn) (H-HGEG[Thr(3ξ)]Y[Thr(3ξ)]NDVTEYLEEEAAK([γGlu-Aun-Glycoloyl(O-gemfibrozoyl)])EFIEWLIKGKPSSGAPPPS-OH)
half-life [5]: 3.7 h
half-life at 1000 ng/ml [1]: 21.4 h
Tmax [6]: 2.7 h
Activity (Mus musculus [3]): Active
K (Albumin): 7.6
EC50 [4]: 140 pM

half-life at 1000 ng/ml [1]: 29.5 h
K (Albumin): 11.2
EC50 [4]: 91 pM
Compound: H-HGEGTYTNDVTEYLEEEAA[ξK]([γGlu-X2])EFIEWLIKGKPSSGAPPSKKKKKK-OH
Activity (Mus musculus [2]): Active
Activity (Mus musculus [3]): Active

Compound: SEMAGLUTIDE [listing 1 of 2 here]
Activity [7]: Non-Toxic
Activity [8]: Non-Toxic
Activity [9]: Non-Toxic
Activity [10]: Non-Toxic

Compound: SEMAGLUTIDE [listing 2 of 2 here]
Activity (Mus musculus [11]): inactive
Activity (Mus musculus [12]): Active
Activity (Mus musculus [13]): 25.5%
Activity (Mus musculus [14]): Active
TIME (Mus musculus [15]): 1680 h
Activity (Mus musculus [16]): 52%
Activity (Mus musculus [17]): inactive
Activity (Mus musculus [18]): Active
Activity (Mus musculus [19]): inactive
Activity (Mus musculus [20]): 6.7%
Activity (Mus musculus [21]): 13.4%
Activity (Mus musculus [22]): Active
Activity (Mus musculus [23]): Active
Activity (Mus musculus [24]): Active
Activity (Mus musculus [25]): Active
Activity (Mus musculus [26]): Active
